Experimental data from ChEMBL document CHEMBL5042525, “Activation of E6AP/UBE3A-Mediated Protein Ubiquitination and Degradation Pathways by a Cyclic γ-AA Peptide” (J Med Chem, 2022).
Calls of active or inactive are those of the source. The calls are words filed in the database; no cut-off is given here.

Assays:
Homo sapiens [1] = species: Homo sapiens; assay: Activation of full length E6AP (unknown origin) self-ubiquitination at 100 uM preincubated for 30 mins followed by UB addition incubated for 2 hrs by SDS PAGE based Western blot analysis
[2] = Binding affinity to recombinant E6AP HECT domain (unknown origin) expressed in BL21 cells by fluorescence polarization assay; parameters: species or system Homo sapiens
Homo sapiens [3] = species: Homo sapiens; assay: Activation of wild type N-terminal Flag-tagged E6AP HECT domain (unknown origin) self-ubiquitination assessed as increase in formation of polyubiquitinated HECT in presence of wild type HA-tagged UB at 10 to 100 uM preincubated for 30 mins followed by UB addition incubated for 2 hrs by SDS PAGE based Western blot analysis; conditions: dose 10-100 µM, time 150.0 min
Homo sapiens [4] = species: Homo sapiens; assay: Activation of wild type N-terminal Flag-tagged E6AP (unknown origin) mediated UbxD8 substrate ubiquitination in presence of Uba1/Ubch7 at 10 to 100 uM preincubated for 30 mins followed by UB addition incubated for 2 hrs by SDS PAGE based Western blot analysis; conditions: dose 10-100 µM, time 2.5 hrs
Homo sapiens [5] = species: Homo sapiens; assay: Activation of wild type N-terminal Flag-tagged E6AP (unknown origin) mediated ubiquitination of p53 substrate at 10 to 100 uM in presence of […] E6 and Uba1/Ubch7 preincubated for 30 min followed by UB addition incubated for 2 hrs by SDS PAGE based Western blot analysis; conditions: dose 10-100 µM, time 150.0 min
[6] = Stability of the compound in human serum for 24 hrs by HPLC-MS analysis; type: ADME, cell-free
Homo sapiens [7] = species: Homo sapiens; assay: Activation of wild type N-terminal Flag-tagged E6AP (unknown origin) mediated beta-catenin substrate ubiquitination in presence of Uba1/Ubch7 preincubated for 30 mins followed by UB addition incubated for 2 hrs by SDS PAGE based Western blot analysis; conditions: filed as activator, dose 1-100 µM, time 150.0 min
Homo sapiens [8] = species: Homo sapiens; assay: Activation of wild type N-terminal Flag-tagged E6AP HECT domain (unknown origin) self-ubiquitination in presence of UbcH7 at 5 uM preincubated for 30 mins followed by UB addition incubated for 2 hrs by SDS PAGE based Western blot analysis; conditions: filed as activator, time 2.5 hrs
Homo sapiens [9] = species: Homo sapiens; assay: Activation of wild type N-terminal Flag-tagged E6AP (unknown origin) mediated HHR23A substrate ubiquitination in presence of Uba1/Ubch7 preincubated for 30 mins followed by UB addition incubated for 2 hrs by SDS PAGE based Western blot analysis; conditions: filed as activator, dose 1-100 µM, time 150.0 min
Homo sapiens [10] = species: Homo sapiens; assay: Activation of wild type N-terminal Flag-tagged E6AP (unknown origin) mediated UbxD8 substrate ubiquitination in presence of Uba1/Ubch7 preincubated for 30 mins followed by UB addition incubated for 2 hrs by SDS PAGE based Western blot analysis; conditions: filed as activator, time 2.5 hrs
[11] = Stability of the compound in ammonium bicarbonate buffer at pH 7.8 assessed as pronase (unknown origin)-mediated drug degradation for 24 hrs by HPLC-MS analysis; type: ADME; conditions: human, pH 7.8, 24 h
Homo sapiens [12] = species: Homo sapiens; assay: Activation of E6AP (unknown origin) self-ubiquination in presence of wild type HA-tagged UB at 5 uM preincubated for 30 mins followed by UB addition incubated for 2 hrs by SDS PAGE based Western blot analysis; conditions: filed as activator, time 150.0 min
Homo sapiens [13] = species: Homo sapiens; assay: Activation of E6AP (unknown origin) self-ubiquination in presence of UbcH7 at 5 uM preincubated for 30 mins followed by UB addition incubated for 2 hrs by SDS PAGE based Western blot analysis; conditions: filed as activator, time 2.5 hrs
Homo sapiens [14] = species: Homo sapiens; assay: Activation of E6AP (unknown origin) self-ubiquination in presence of Uba1 at 5 uM preincubated for 30 mins followed by UB addition incubated for 2 hrs by SDS PAGE based Western blot analysis; conditions: filed as activator, time 2.5 hrs
Homo sapiens [15] = species: Homo sapiens; assay: Activation of wild type N-terminal Flag-tagged E6AP HECT domain (unknown origin) self-ubiquitination in presence of Uba1 at 5 uM preincubated for 30 mins followed by UB addition incubated for 2 hrs by SDS PAGE based Western blot analysis; conditions: filed as activator, time 2.5 hrs
HEK293T [16] = assay: Activation of E6AP mediated HHR23A degradation in HEK293T cells at 1 to 5 uM preincubated for 14 hrs followed by CHX addition by cycloheximide chase assay; type: cell-based; conditions: Homo sapiens, filed as activator, dose 1-5 µM
HEK293T [17] = assay: Activation of E6AP (unknown origin) in HEK293T cells assessed as increase in ubiquitination level of UbxD8 substrate at 25 to 50 uM preincubated for 14 hrs followed by addition of MG132 incubated for 12 hrs by SDS PAGE based Western blot analysis; type: cell-based; conditions: Homo sapiens, filed as activator, dose 25-50 µM, time 26.0 hrs
Homo sapiens [18] = species: Homo sapiens; assay: Activation of wild type N-terminal Flag-tagged E6AP HECT domain (unknown origin) self-ubiquitination in presence of wild type HA-tagged UB at 5 uM preincubated for 30 mins followed by UB addition incubated for 2 hrs by SDS PAGE based Western blot analysis; conditions: filed as activator, time 150.0 min
HEK293T [19] = assay: Activation of E6AP (unknown origin) mediated HHR23A substrate ubiquitination in HEK293T cells at 25 to 50 uM preincubated for 14 hrs followed by addition of MG132 incubated for 12 hrs by SDS PAGE based Western blot analysis; type: cell-based; conditions: Homo sapiens, filed as activator, dose 25-50 µM, time 26.0 hrs
HEK293T [20] = assay: Activation of E6AP mediated UbxD8 degradation in HEK293T cells at 50 uM preincubated for 14 hrs followed by CHX addition by cycloheximide chase assay; type: cell-based; conditions: Homo sapiens, filed as activator
HEK293T [21] = assay: Activation of E6AP mediated HHR23A degradation in HEK293T cells at 50 uM preincubated for 14 hrs followed by CHX addition by cycloheximide chase assay; type: cell-based; conditions: Homo sapiens, filed as activator

CC(C)C[C@H]1CN(CC(N)=O)C(=O)CCSCc2ccc(cc2)C(=O)N[C@@H](C)CN(C(=O)Cc2ccc3ccccc3c2)CC(=O)N[C@@H](CC(C)C)CN(C(=O)CCc2ccccc2)CC(=O)N[C@@H](Cc2ccccc2)CN(C(=O)Cc2ccc3c(c2)OCO3)CC(=O)N1
Activity (Homo sapiens [1]): inactive | Kd ([2]; read-out: Kd): 187 nM | Activity (Homo sapiens [3]): inactive | Activity (Homo sapiens [4]): inactive | Activity (Homo sapiens [5]): inactive

COc1cc(CC(=O)N2CC(=O)N[C@@H](C)CN(C(=O)Cc3cc(OC)cc(OC)c3)CC(=O)N[C@@H](CC(C)C)CN(CC(N)=O)C(=O)CCSCc3ccc(cc3)C(=O)N[C@@H](Cc3ccccc3)CN(C(=O)Cc3ccc4c(c3)OCO4)CC(=O)N[C@@H](Cc3ccccc3)C2)cc(OC)c1
Activity (Homo sapiens [1]): inactive | Kd ([2]; read-out: Kd): 83.4 nM | Activity (Homo sapiens [3]): inactive | Activity (Homo sapiens [4]): inactive | Activity (Homo sapiens [5]): inactive

COc1cc(CC(=O)N2CC(=O)N[C@@H](Cc3ccccc3)CN(C(=O)CC3CC3)CC(=O)N[C@@H](CC(C)C)CN(CC(N)=O)C(=O)CCSCc3ccc(cc3)C(=O)N[C@@H](CCC(=O)O)CN(C(=O)Cc3ccc4c(c3)OCO4)CC(=O)N[C@@H](CC(C)C)C2)cc(OC)c1
Activity (Homo sapiens [1]): inactive | Kd ([2]; read-out: Kd): 162 nM | Activity (Homo sapiens [3]): inactive | Activity (Homo sapiens [4]): inactive | Activity (Homo sapiens [5]): inactive

CC(C)C[C@H]1CN(CC(N)=O)C(=O)CCSCc2ccc(cc2)C(=O)N[C@@H](Cc2ccccc2)CN(C(=O)Cc2ccc3ccccc3c2)CC(=O)N[C@@H](CC(C)C)CN(C(=O)CCC2CCCCC2)CC(=O)N[C@@H](Cc2ccccc2)CN(C(=O)Cc2ccc3c(c2)OCO3)CC(=O)N1
Activity (Homo sapiens [1]): inactive | Kd ([2]; read-out: Kd): 82.2 nM | Activity (Homo sapiens [3]): inactive | Activity (Homo sapiens [4]): inactive | Activity (Homo sapiens [5]): inactive

C[C@H]1CN(C(=O)CCC(=O)O)CC(=O)N[C@@H](Cc2ccccc2)CN(CC(N)=O)C(=O)CCSCc2ccc(cc2)C(=O)N[C@@H](C)CN(C(=O)Cc2ccc3c(c2)OCO3)CC(=O)N[C@@H](CCC(=O)O)CN(C(=O)CC2CC2)CC(=O)N1
Activity (Homo sapiens [1]): inactive | Kd [2]: Not Active | Activity (Homo sapiens [3]): inactive | Activity (Homo sapiens [4]): inactive | Activity (Homo sapiens [5]): inactive

C[C@H]1CN(C(=O)Cc2ccc3c(c2)OCO3)CC(=O)N[C@@H](Cc2ccccc2)CN(C(=O)Cc2ccc3ccccc3c2)CC(=O)N[C@@H](CCC(=O)O)CN(C(=O)CC2CC2)CC(=O)N[C@@H](Cc2ccccc2)CN(CC(N)=O)C(=O)CCSCc2ccc(cc2)C(=O)N1
Activity (Homo sapiens [1]): inactive | Kd ([2]; read-out: Kd): 171 nM | Activity (Homo sapiens [3]): inactive | Activity (Homo sapiens [4]): inactive | Activity (Homo sapiens [5]): inactive

CC(C)C[C@H]1CN(C(=O)Cc2ccc3c(c2)OCO3)CC(=O)N[C@@H](CCC(=O)O)CN(C(=O)CCC2CCCCC2)CC(=O)N[C@@H](C)CN(C(=O)CCC(=O)O)CC(=O)N[C@@H](Cc2ccccc2)CN(CC(N)=O)C(=O)CCSCc2ccc(cc2)C(=O)N1
Activity (Homo sapiens [1]): inactive | Kd [2]: Not Active | Activity (Homo sapiens [3]): inactive | Activity (Homo sapiens [4]): inactive | Activity (Homo sapiens [5]): inactive

COc1cc(CC(=O)N2CC(=O)N[C@@H](Cc3ccccc3)CN(C(=O)CC3CC3)CC(=O)N[C@@H](CC(C)C)CN(CC(N)=O)C(=O)CCSCc3ccc(cc3)C(=O)N[C@@H](CCCCN)CN(C(=O)Cc3ccc4ccccc4c3)CC(=O)N[C@@H](CC(C)C)C2)cc(OC)c1
Stability [6]: Stable | Activity (Homo sapiens [1]; filed as activator): Active | Activity (Homo sapiens [7]): Dose-Dependent Effect | Activity (Homo sapiens [8]): Active | Activity (Homo sapiens [9]): Dose-Dependent Effect | Activity (Homo sapiens [10]): Dose-Dependent Effect | Kd ([2]; read-out: Kd): 218 nM | Stability [11]: Stable | Activity (Homo sapiens [12]): Active | Activity (Homo sapiens [13]): Active | Activity (Homo sapiens [14]): Active | Activity (Homo sapiens [3]; filed as activator): Active | Activity (Homo sapiens [4]; filed as activator): Active | Activity (Homo sapiens [15]): Active | Activity (HEK293T [16]): Active | Activity (HEK293T [17]): Active | Activity (Homo sapiens [18]): Active | Activity (HEK293T [19]): Active | Activity (Homo sapiens [5]): inactive | Activity (HEK293T [20]): Active | Activity (HEK293T [21]): Active
